# Measured values as given in patent US4764591A, “Des-19-leucine, 20-glutamine, 21-threonine, 22-tyrosine-calcitonin” (Rorer Pharmaceutical Corporation, priority 1987, dated 1988).
# Positions of bridges follow the written chain, without caps; N, C: chain ends. Residues, ends and D or L forms follow the SMILES beside them.
# Assays:
# [1] = test system: serum calcium concentration
# Protocol: Biological Assay of Calcitonin Analogs in Vivo
# Rats were divided into four groups of seven animals, and each group was assigned at random to a dose of standard or test solution. Low and high doses were chosen from the linear portion of the dose-response curve. For the salmon calcitonin standard, the values were 0.7 and 2.1 ng. peptide/100 g. body weight (BW). This dose approximates 3 and 9 MU/100 g. BW. Peptides were given by subcutaneous injection (0.2 ml/100 g. BW) and blood was withdrawn 1 hour later for serum calcium determination. Sera are processed and analyzed within two hours of collection. Results were analyzed within two hours of collection.
# [2] = literature values; cited from earlier work
Compound,hypocalcemic potency [2],further results
"CC(C)C[C@H](NC(=O)[C@H](CCCCN)NC(=O)CNC(=O)[C@H](CC(C)C)NC(=O)[C@@H](NC(=O)[C@@H]1CSSC[C@H](N)C(=O)N[C@@H](CO)C(=O)N[C@@H](CC(N)=O)C(=O)N[C@@H](CC(C)C)C(=O)N[C@@H](CO)C(=O)N[C@@H]([C@@H](C)O)C(=O)N1)C(C)C)C(=O)N[C@@H](CO)C(=O)N[C@@H](CCC(N)=O)C(=O)N[C@@H](CCC(=O)O)C(=O)N[C@@H](CC(C)C)C(=O)N[C@@H](Cc1c[nH]cn1)C(=O)N[C@@H](CCCCN)C(=O)N1CCC[C@H]1C(=O)N[C@@H](CCCNC(=N)N)C(=O)N[C@H](C(=O)N[C@@H](CC(N)=O)C(=O)N[C@H](C(=O)NCC(=O)N[C@@H](CO)C(=O)NCC(=O)N[C@H](C(=O)N1CCC[C@H]1C(N)=O)[C@@H](C)O)[C@@H](C)O)[C@@H](C)O [des-Leu^19, Gln^20, Thr^21, Tyr^22 -SCT, des-19-leucine, 20-glutamine, 21-threonine, 22-tyrosine-salmon calcitonin] (H-CSNLSTCVLGKLSQELHKPRTNTGSGTP-NH2; disulfide 1-7)",–,"biological potency ([1]; rat, in vivo, sc): 6250 IU/mg"
"CC(C)C[C@H](NC(=O)[C@H](CCCCN)NC(=O)CNC(=O)[C@H](CC(C)C)NC(=O)[C@@H](NC(=O)[C@@H]1CSSC[C@H](N)C(=O)N[C@@H](CO)C(=O)N[C@@H](CC(N)=O)C(=O)N[C@@H](CC(C)C)C(=O)N[C@@H](CO)C(=O)N[C@@H]([C@@H](C)O)C(=O)N1)C(C)C)C(=O)N[C@@H](CO)C(=O)N[C@@H](CCC(N)=O)C(=O)N[C@@H](CCC(=O)O)C(=O)N[C@@H](CC(C)C)C(=O)N[C@@H](Cc1c[nH]cn1)C(=O)N[C@@H](CCCCN)C(=O)N[C@@H](CC(C)C)C(=O)N[C@@H](CCC(N)=O)C(=O)N[C@H](C(=O)N[C@@H](Cc1ccc(O)cc1)C(=O)N1CCC[C@H]1C(=O)N[C@@H](CCCNC(=N)N)C(=O)N[C@H](C(=O)N[C@@H](CC(N)=O)C(=O)N[C@H](C(=O)NCC(=O)N[C@@H](CO)C(=O)NCC(=O)N[C@H](C(=O)N1CCC[C@H]1C(N)=O)[C@@H](C)O)[C@@H](C)O)[C@@H](C)O)[C@@H](C)O [standard salmon calcitonin, salmon calcitonin]",–,"potency content of the standard, independently determined ([1]; standard salmon calcitonin used in the assay, independently determined): greater than 4,000 IU/mg"
"(1,7-alpha-L-amino-suberic acid) eel calcitonin",about 3400 IU/mg.,–
eel calcitonin [synthetic eel calcitonin],around 4300 IU/mg.,–
